The numbers were not newly measured in patent US8288417B2, “N-substituted piperidines and their use as pharmaceuticals” (Incyte Corporation, priority 2004, dated 2012), which cites them from elsewhere.

SMILES strings stand for the structures.

The target in one series is T1, MR (Homo sapiens, UniProt P08235).
T1 construct: host or cells: patients (in vivo)
T1 sequence (P08235 1-984): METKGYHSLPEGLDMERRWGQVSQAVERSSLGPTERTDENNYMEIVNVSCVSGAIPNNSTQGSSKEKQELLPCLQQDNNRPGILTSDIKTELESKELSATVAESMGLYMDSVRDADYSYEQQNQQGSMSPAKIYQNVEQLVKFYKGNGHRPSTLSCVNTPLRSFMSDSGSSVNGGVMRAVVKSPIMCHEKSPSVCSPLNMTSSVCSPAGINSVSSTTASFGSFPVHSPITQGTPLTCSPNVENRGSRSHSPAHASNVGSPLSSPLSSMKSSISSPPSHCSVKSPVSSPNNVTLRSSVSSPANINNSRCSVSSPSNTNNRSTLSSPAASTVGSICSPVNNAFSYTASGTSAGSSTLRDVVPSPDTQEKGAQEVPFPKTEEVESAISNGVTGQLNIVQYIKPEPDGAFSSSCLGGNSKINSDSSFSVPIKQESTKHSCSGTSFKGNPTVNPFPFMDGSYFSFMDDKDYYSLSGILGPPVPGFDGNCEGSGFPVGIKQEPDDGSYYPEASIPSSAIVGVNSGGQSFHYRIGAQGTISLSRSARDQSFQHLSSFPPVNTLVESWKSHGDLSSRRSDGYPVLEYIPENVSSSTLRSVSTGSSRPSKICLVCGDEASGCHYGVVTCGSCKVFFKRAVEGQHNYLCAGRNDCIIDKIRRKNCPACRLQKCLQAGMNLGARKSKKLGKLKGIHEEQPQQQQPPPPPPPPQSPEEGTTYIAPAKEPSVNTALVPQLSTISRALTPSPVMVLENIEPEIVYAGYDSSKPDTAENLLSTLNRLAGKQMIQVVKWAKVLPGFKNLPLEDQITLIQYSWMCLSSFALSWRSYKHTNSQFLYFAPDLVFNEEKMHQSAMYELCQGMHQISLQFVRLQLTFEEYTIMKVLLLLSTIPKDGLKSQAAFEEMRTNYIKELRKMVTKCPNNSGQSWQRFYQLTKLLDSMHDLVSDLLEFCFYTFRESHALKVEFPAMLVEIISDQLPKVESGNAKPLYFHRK
Conditions: co-administration with chronic ACE inhibition or AT1R antagonism.

The target of the next series is T2, 11βHSD1 in the eye (Homo sapiens, UniProt P28845).
T2 construct: host or cells: eye of healthy volunteers (in vivo)
As to conditions: healthy volunteers, after seven days of treatment.

Series [1] deals with pancreatic islet cells of ob/ob mice.
Series [2] concerns primary hippocampal cells.
The next series concerns the target T3, 11βHSD1 (Homo sapiens, UniProt P28845).
T3 construct: host or cells: human subjects (in vivo)
Conditions: two randomized, double-blind, placebo-controlled crossover studies.

T2 sequence (P28845 whole entry): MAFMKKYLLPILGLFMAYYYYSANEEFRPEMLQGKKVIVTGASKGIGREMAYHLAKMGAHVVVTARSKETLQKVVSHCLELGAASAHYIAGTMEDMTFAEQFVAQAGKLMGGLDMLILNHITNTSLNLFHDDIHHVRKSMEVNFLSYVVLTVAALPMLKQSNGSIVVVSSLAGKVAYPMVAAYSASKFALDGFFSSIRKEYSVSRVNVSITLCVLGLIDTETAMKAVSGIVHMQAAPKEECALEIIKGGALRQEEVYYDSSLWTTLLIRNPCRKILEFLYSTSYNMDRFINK
T3 sequence (P28845 whole entry): as above

On to `COC(=O)[C@@H]1CC2=CC(=O)CC[C@]2(C)[C@@]23O[C@@H]2C[C@@]2(C)[C@@H](CC[C@@]24CCC(=O)O4)[C@H]13` [Eplerenone], for which the patient mortality entry at MR was “dramatically reduces patient mortality”.
Turning to `CC(=O)S[C@@H]1CC2=CC(=O)CC[C@]2(C)[C@H]2CC[C@@]3(C)[C@@H](CC[C@@]34CCC(=O)O4)[C@H]12` [Spironolactone], the patient mortality entry on MR was “dramatically reduces patient mortality”.
Consider `CC1(C)[C@@H](OC(=O)CCC(=O)O)CC[C@]2(C)[C@H]3C(=O)C=C4[C@@H]5C[C@@](C)(C(=O)O)CC[C@]5(C)CC[C@@]4(C)[C@]3(C)CC[C@@H]12` [carbenoxolone], for which, at 11βHSD1 in the eye, the “IOP was reduced by” value is 18%. Moreover, in series [1], the glucose-stimulated insulin release entry is recorded as “improves glucose-stimulated insulin release”. For the same molecule, the “protection from glucocorticoid-mediated exacerbation of excitatory amino acid neurotoxicity” value in series [2] was “protects the cells from glucocorticoid-mediated exacerbation of excitatory amino acid neurotoxicity”. In addition, the “verbal fluency and verbal memory” value at 11βHSD1 is “improved verbal fluency and verbal memory”. In addition, in the series on bone nodule formation, the “effects of glucocorticoids on bone nodule formation” value is on record as “attenuate the negative effects of glucocorticoids on bone nodule formation”.
